# What was measured:
# human S1P1 receptor = target: T1, human S1P1 receptor (Homo sapiens, UniProt P21453); assay: CellKey impedance assay in CHO cells, agonistic and antagonistic effect; type: cell-based; settings: GPCR based impedance assays
# T1 construct: host or cells: CHO cells
# Experimental: Cell on impedance modulation, using the CellKey (Cellular Dielectric Spectroscopy) detection method (CellKey 96, MDS Sciex, Concord, ON, Canada) at Eurofins Pharma Discovery Services (Celle-Lévescault, France). CHO cells were seeded onto a 96-well plate at 15.104 cells/well in HBSS buffer (Invitrogen), 20 mM HEPES (Invitrogen), 10% FCS (Invitrogen), and 0.1% BSA (Sigma), allowed to equilibrate for 60 min at 28 °C. DMSO solutions of compounds were diluted in HBSS and 0.1% BSA. Plates were placed onto the system, and measurements were made at a temperature of 28 °C. To measure the agonistic effect, compounds and controls in duplicate were added simultaneously to all of the wells using an integrated fluidics system. Impedance measurements were monitored for 10 min after ligand addition. […] To measure the antagonistic effect, compounds and controls in duplicate were pre-incubated for 15 min before the addition of the reference agonist S1P at 0.01 µM (EC80). Impedance measurements were monitored for 10 min.
# Evaluation of the agonistic (a) and antagonist (b) effect of the compounds on the human S1P1 receptor. […] Data are expressed as percentage of control (no compound) activity, n = 2. TSA was used as a control; (d) Cellular HDAC activity assay. […] SAHA was used as a control. Ponceau S staining was used as loading control. Veh: Vehicle. […] TSA: Trichostatin A. SAHA: suberoylanilide hydroxamic acid.
# [1] = test system: spleen cells isolated from mice suffering chronic EAE; assay: Encephalitogenic T-cell response in vitro, spleen cells of EAE mice re-stimulated with MOG35–55; type: cell-based, mouse; settings: 0.5 µM ORY-2001, MOG35–55 15 µM
# Experimental: Spleen and draining lymph node (DLN) cells (10^6/mL) collected from EAE mice were stimulated in complete medium (RPMI 1640 containing 10% FBS, 50 µM 2-ME, 2 mM L-glutamine, 100 U/mL penicillin, and 100 µg/mL streptomycin) with 15 µM MOG35–55. After 48 h, cytokine (IL-4, TNF-alpha, IFN-gamma) and chemokine (IP-10 and MCP1) contents in culture supernatants were determined by sandwich ELISAs using capture/biotinylated detection Abs according to the manufacturer’s recommendations. The antibodies used are indicated in Supplementary Materials Table S4. Cell proliferation was evaluated after 72 h by adding 2.5 µCi/mL tritiated-thymidine during the last 8 h of culture and determining cpm incorporation in a Microbeta counter. We used T cell activation with an anti-CD3 […] antibody (1 µg/mL) or ConA (2.5 µg/mL) as controls of unspecific polyclonal stimulation.
# Data are the mean ± SEM with dots representing individual values of biologically independent animals.
# SH-SY5Y cells = assay: Human H3 acetylation assay (Western blot), cellular HDAC activity; type: cell-based; settings: 1 and 0.1 µM, 2 and 6 h
# Experimental: Human H3 acetylation assays: for the determination of global and K9-specific acetylation levels, 500,000 SH-SY5Y cells were seeded in 6-well plates in DMEM/F12 1:1 (Sigma), supplemented with 2 mM glutamine (LabClinics) and 10% FBS (Sigma) and incubated at 37 °C and 5% CO2 in a humid atmosphere. […] After 2 and 6 h of treatment, cells were harvested and centrifuged at 250× g for 4 min at room temperature and cell pellets used for total histone extraction with EpiQuik Total Histone Extraction Kit (Epigentek, Farmingdale, NY, USA) following manufacturer’s instructions. 1 µg of histone extracts were run in MOPS buffer in 12% PAGE (Life Technologies, Carlsbad, CA, USA) and transferred with the iBlot system to nitrocellulose membranes. Transferred blots were stained with the Ponceau S solution (Sigma) and scanned with an Epson Perfection V600 Photo Scanner. Membranes were blocked in blocking buffer (5% skimmed milk in PBS-Tween 0.1%) for 1 h at room temperature, and after blocking blots were incubated with rabbit polyclonal anti-H3K9Ac (1:2000 dilution, Abcam, Cambridge, UK) and rabbit polyclonal anti-H3ac (K9 + K14 + K18 + K23 + K27) (1:2000 dilution, Abcam) overnight at 4 °C in ablocking buffer. […]
# T1 sequence (P21453 whole entry): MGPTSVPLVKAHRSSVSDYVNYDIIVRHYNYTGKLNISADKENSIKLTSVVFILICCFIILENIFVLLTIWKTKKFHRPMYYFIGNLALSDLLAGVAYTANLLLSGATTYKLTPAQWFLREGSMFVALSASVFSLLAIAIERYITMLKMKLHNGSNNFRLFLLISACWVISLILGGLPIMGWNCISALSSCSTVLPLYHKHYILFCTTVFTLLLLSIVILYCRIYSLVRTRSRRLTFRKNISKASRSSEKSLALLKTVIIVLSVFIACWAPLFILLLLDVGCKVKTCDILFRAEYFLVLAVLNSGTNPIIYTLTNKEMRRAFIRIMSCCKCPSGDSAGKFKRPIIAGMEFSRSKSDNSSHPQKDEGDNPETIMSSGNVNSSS
smiles,measurement,setting,value
Nc1nnc(CN[C@@H]2C[C@H]2c2ccc(OCc3ccccc3)cc2)o1 [ORY-2001],agonist and antagonist activity at S1P1 receptor,human S1P1 receptor,neither ORY-2001 nor ORY-LSD1 (at concentrations well above those needed to fully inhibit KDM1A) showed any activity
same,agonist and antagonist activity at S1P1 receptor,human S1P1 receptor; listed as vafidemstat,does not target the S1PR
same,IL-10 and IL-4 levels,[1],increasing the levels of the anti-inflammatory mediators IL-10 and IL-4
same,MOG35–55-induced proliferation and cytokine production,[1],deactivated the MOG35–55 -induced proliferation and cytokine production in vitro
"CCCCCCCCc1ccc(CCC(N)(CO)CO)cc1 [FTY720, Fingolimod, reference compound]",impact on cellular HDAC activity (acetylated H3 or H3K9 levels),SH-SY5Y cells,unable to confirm the previous studies reporting that FTY720 or FTY720-P had any significant impact

# Reference: publication PMC9323733, “Efficacy of Vafidemstat in Experimental Autoimmune Encephalomyelitis Highlights the KDM1A/RCOR1/HDAC Epigenetic Axis in Multiple Sclerosis” (Pharmaceutics, 2022)
